# According to PubChem BioAssay AID1996:
# Conditions: buffer; pH 7.4; 200.0 µM
row,Compound,solubility kinetic [µg/mL]
1,O=C(Cc1ccccc1)N1CCN=C1SCc1cccc([N+](=O)[O-])c1,9.7
2,CCSCc1nc2ccccn2c1Br,34.6
3,Cc1ccc(S(=O)(=O)NCc2csc(-c3cccs3)n2)cc1,0.7
4,CC(=O)c1ccc(N2CCc3ccccc3C2)c([N+](=O)[O-])c1,8.3
5,CCCOc1ccc(CNC(=S)Nc2ccccc2)cc1Cl,1.9
6,CCOc1ccc(NC(=O)CN2C(=O)NC(CCc3ccccc3)C2=O)cc1OCC (stereo not given),8.8
7,CC1(C)CC(=O)C2=C(C1)NC(=O)NC2c1ccc([N+](=O)[O-])cc1 (stereo not given),> 47.3
8,COc1ccccc1NCC(=O)NC(=O)NC1CCCCC1,5.9
9,CCOc1ccc(Oc2ccc(Cl)cc2N)cc1.Cl,4.5
10,O=S(=O)(NCCc1ccccc1)c1ccc(Br)s1,27.5
11,CC(=O)Oc1ccccc1C(=O)NC(C)CCc1ccccc1 (stereo not given),> 46.7
12,COC(=O)c1cnc[nH]1,> 18.9
13,O=C(CSCc1ccc(Br)cc1)N1CCCC1,> 47.1
14,N#CN=C(c1ccccc1)c1ccccc1,30.4
15,CCc1c(C(=O)NC(C)C2CCCO2)csc1C (stereo not given),35.9
16,Cc1cc(C)cc(NC(=O)CCOc2ccccc2)c1,4.1
17,Cc1ccccc1Cn1c(C)nc2ccccc21,> 35.4
18,COc1ccccc1NC(=O)NCCc1ccccc1,> 40.5
19,Cc1ccc(Cl)cc1NC(C#N)c1ccccc1 (stereo not given),6.5
20,CCC(=O)N(Cc1cc(=O)[nH]c2ccccc12)c1ccc(C)cc1C,43.9

row,Compound,solubility kinetic [µg/mL]
1,CC1CCN(C(=O)CSc2nnc(N)s2)CC1,> 40.9
2,Cc1ccc(-n2c3nc(=O)n(C)c(=O)c-3cc3ccccc32)cc1,12.3
3,O=C(Nc1ccccc1)C1CC(=O)N(Cc2ccccc2)C1 (stereo not given),> 44.2
4,Nc1cc([N+](=O)[O-])cc2oc(-c3ccccc3)cc12,< 0.3
5,O=C(COC(=O)c1ccc(F)cc1)NCC1CCCCC1,9.4
6,O=C(Nc1ccccc1Cl)C1Cc2ccccc2O/C1=N\O (stereo not given),> 47.5
7,Cc1ccc(N2C(=O)CC(C)(C)CC2=O)cc1Cl,12.5
8,Cc1ccc(C)c(N2C(=O)CC(Cc3ccc(Cl)cc3)C2=O)c1 (stereo not given),17.6
9,Cc1cc(C)c(Nc2ncnc(N)n2)c(C)c1,> 34.4
10,COC(=O)CCCCCCCCC(O)CN(C)C (stereo not given),27.7
11,Nc1cc(=O)[nH]c(SCC(=O)N2CCCC2)n1,> 38.1
12,O=C(Nc1ccccc1F)C1COc2ccccc2O1 (stereo not given),25.6
13,COc1cc(C)cc(CN2CCC(Cc3ccccc3)CC2)c1O,44.5
14,O=C(CN1C(=O)NC2(CCc3ccccc32)C1=O)NCc1ccc(Cl)cc1 (stereo not given),> 57.6
15,O=C1CN=C(c2ccccc2)c2ccccc2N1,27.2
16,CCN(C(=O)CSc1ncccn1)C1CCS(=O)(=O)C1 (stereo not given),> 47.3
17,COc1ccc(C(=O)O)cc1S(=O)(=O)NCc1cccnc1,> 48.4
18,O=C(CSc1ncn[nH]1)NCCc1ccc(Cl)cc1,> 44.5
19,COc1ccc([N+](=O)[O-])c(OC)c1C(=O)NC(=O)Nc1nc(C)cc(C)n1,43.6
20,CCCS(=O)(=O)c1cscc1NC(=O)c1c(-c2c(F)cccc2Cl)noc1C,0.9

row,Compound,solubility kinetic [µg/mL]
1,Cc1ccc(CN2CCN(Cc3ccncc3)CC2CCO)o1 (stereo not given),34.3
2,Cc1nc2ccc([N+](=O)[O-])cc2nc1C,> 30.5
3,Nc1nc2nonc2nc1N,> 22.8
4,CC(=O)c1ccc(N2CCN(c3ncccn3)CC2)cc1,7.7
5,CCC(C)c1ccc(NC(=O)NCCN2CCCCC2)cc1 (stereo not given),40.3
6,COc1cccc(Nc2ccc([N+](=O)[O-])c3nonc23)c1,5.2
7,COc1ccc(CCNC(=O)c2ccc([N+](=O)[O-])cc2)cc1,5.3
8,C=CCn1c(SCC(=O)NCC2CCCO2)nc2sc(CC)cc2c1=O (stereo not given),> 59
9,CCCN(CC(=O)Nc1cc(Cl)ccc1Cl)C(=O)c1ccccn1,> 54.9
10,CN(C)CCNC(=O)c1ccc2c(c1)NC(=O)c1ccccc1S2,> 51.2
11,CCOC(=O)N1CCN(c2nc3c(C)cccn3c(=O)c2C=O)CC1,> 51.7
12,Cc1ccc(CNC(=O)c2cc(=O)c3cc(C)ccc3o2)cc1,< 0.7
13,O=C(CCc1c[nH]c2ccccc12)NCCOc1ccccc1,43.7
14,COc1ccc(C(=O)COc2ncnc3cc(Cl)ccc23)cc1,< 0.4
15,COC(=O)c1c(C)oc(C)c1S(=O)(=O)N1CCOCC1,40.9
16,Cc1[nH]c2ccccc2c1C(=O)CSc1cccc[n+]1[O-],40.8
17,CCc1nc(SCC(=O)NC2CC2)c2c(C)c(C)sc2n1,2.5
18,CN1CCN(S(=O)(=O)c2ccc(Cl)c3ccccc23)CC1,45.1
19,COc1cccc2[nH]c(C(=O)NCCCN3CCCC3=O)cc12,> 47.3
20,COc1ccc(OC)c(/C=C/C(=O)OCC(=O)N2CCCCC2)c1,> 50
